How the values were obtained:
Format in all cases: functional
NCI-H460 = experiment: Growth inhibition of human NCI-H460 cells after 24 hrs by MTT assay; conditions: NCI-H460, 24 h
NCI-H522 [1] = experiment: Growth inhibition of human NCI-H522 cells after 24 hrs by MTT assay; conditions: NCI-H522, 24 h
PC-3 = experiment: Growth inhibition of human PC3 cells after 24 hrs by MTT assay; conditions: PC-3, 24 h
SK-OV-3 = experiment: Growth inhibition of human SKOV3 cells at 10 uM after 24 hrs by MTT assay relative to control; parameters: scale not given: the % may be the effect or the level left
NCI-H322M = experiment: Growth inhibition of human NCI-H322M cells after 24 hrs by MTT assay
HL-60(TB) = experiment: Growth inhibition of human HL-60(TB) cells at 10 uM after 24 hrs by MTT assay relative to control; parameters: scale not given: the % may be the effect or the level left
SNB-19 = experiment: Growth inhibition of human SNB19 cells after 24 hrs by MTT assay; conditions: SNB-19, 24 h
NCI/ADR-RES = experiment: Growth inhibition of human NCI/ADR-RES cells at 10 uM after 24 hrs by MTT assay relative to control; parameters: scale not given: the % may be the effect or the level left
NCI-H522 [2] = experiment: Growth inhibition of human NCI-H522 cells at 10 uM after 24 hrs by MTT assay relative to control; parameters: scale not given: the % may be the effect or the level left
IGROV-1 = experiment: Growth inhibition of human IGROV1 cells after 24 hrs by MTT assay; conditions: IGROV-1, 24 h
MOLT-4 = experiment: Growth inhibition of human MOLT4 cells at 10 uM after 24 hrs by MTT assay relative to control; parameters: scale not given: the % may be the effect or the level left
ACHN = experiment: Growth inhibition of human ACHN cells after 24 hrs by MTT assay
OVCAR-5 = experiment: Growth inhibition of human OVCAR5 cells after 24 hrs by MTT assay; conditions: OVCAR-5, 24 h
SF-539 = experiment: Growth inhibition of human SF539 cells after 24 hrs by MTT assay; conditions: SF-539, 24 h
A549 = experiment: Growth inhibition of human A549 cells after 24 hrs by MTT assay; conditions: A549, 24 h
T47D = experiment: Growth inhibition of human T47D cells at 10 uM after 24 hrs by MTT assay relative to control; parameters: scale not given: the % may be the effect or the level left
[3] = read-out: LC50 (the source's name)
[4] = read-out: pLC50 (the source's name) (converted)

Cc1onc(-c2c3ccccc3c(Cl)c3ccccc23)c1C(=O)Nc1cc(C(=O)NCCCN(C)CCCNC(=O)c2cc(NC(=O)c3c(-c4c5ccccc5c(Cl)c5ccccc45)noc3C)cn2C)n(C)c1
GI50 (NCI-H460; read-out: GI50): 1050 nM
CC50 (NCI-H460; [3]): 4720 nM
GI50 (NCI-H460; read-out: pGI50 (converted)): 1050 nM
CC50 (NCI-H460; [4]): 4680 nM
TGI (NCI-H522 [1]): 3510 nM
GI50 (NCI-H522 [1]; read-out: GI50): 1590 nM
GI50 (NCI-H522 [1]; read-out: pGI50 (converted)): 1580 nM
TGI (PC-3): 2690 nM
GI50 (PC-3; read-out: GI50): 1400 nM
CC50 (PC-3; [3]): 5190 nM
GI50 (PC-3; read-out: pGI50 (converted)): 1410 nM
CC50 (PC-3; [4]): 5250 nM
Activity (SK-OV-3): -100%
TGI (NCI-H322M): 4870 nM
GI50 (NCI-H322M; read-out: GI50): 2180 nM
CC50 (NCI-H322M; [3]): 14600 nM
GI50 (NCI-H322M; read-out: pGI50 (converted)): 2190 nM
CC50 (NCI-H322M; [4]): 14500 nM
Activity (HL-60(TB)): -94.78%
TGI (SNB-19): 3500 nM
GI50 (SNB-19; read-out: GI50): 1560 nM
CC50 (SNB-19; [3]): 7860 nM
GI50 (SNB-19; read-out: pGI50 (converted)): 1550 nM
CC50 (SNB-19; [4]): 7940 nM
Activity (NCI/ADR-RES): 47.82%
Activity (NCI-H522 [2]): -85.33%
TGI (IGROV-1): 3260 nM
GI50 (IGROV-1; read-out: GI50): 1430 nM
CC50 (IGROV-1; [3]): 7420 nM
GI50 (IGROV-1; read-out: pGI50 (converted)): 1450 nM
CC50 (IGROV-1; [4]): 7410 nM
Activity (MOLT-4): -100%
TGI (ACHN): 3040 nM
GI50 (ACHN; read-out: GI50): 1630 nM
GI50 (ACHN; read-out: pGI50 (converted)): 1620 nM
TGI (OVCAR-5): 2780 nM
GI50 (OVCAR-5; read-out: GI50): 1470 nM
CC50 (OVCAR-5; [3]): 5270 nM
GI50 (OVCAR-5; read-out: pGI50 (converted)): 1480 nM
CC50 (OVCAR-5; [4]): 5250 nM
TGI (SF-539): 2720 nM
GI50 (SF-539; read-out: GI50): 1420 nM
CC50 (SF-539; [3]): 5220 nM
GI50 (SF-539; read-out: pGI50 (converted)): 1410 nM
CC50 (SF-539; [4]): 5250 nM
TGI (A549): 2850 nM
GI50 (A549; read-out: GI50): 1280 nM
GI50 (A549; read-out: pGI50 (converted)): 1290 nM
Activity (T47D): -81.41%
